Patent publication US7332476B2, “Pyridyl substituted ketolide antibiotics” (Novartis AG, priority 2003, dated 2008)
Values after ≈ are worked out from the molar mass of the structure shown.

How the values were obtained:
[1] = test system: Streptococcus pneumoniae Stpn_Mef 5654; experiment: MIC, broth microdilution (NCCLS); format: cell-based; design: MIC, strain ID R: unit not given beside the values; conditions: for MIC: Table 10, Strain ID P (Table 8): Streptococcus pneumoniae Stpn_Mef 5654, in µg/mL (unit assumed)
In short: (§1)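 Broth microdilution per NCCLS in cation-adjusted Mueller-Hinton broth, with 2-5% lysed horse blood added for S. pneumoniae. Inoculum 3×10^5–7×10^5 CFU/ml, 2-fold drug dilutions, 18-24 h at 35° C; S. pneumoniae under 5-10% CO2, others ambient air. MIC = lowest concentration preventing visible growth.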

[2] = In vivo pharmacokinetic study in rats, plasma (IV and PO); design: species or system Sprague-Dawley rats; conditions: rat; for F, PO: PO = 15 mg/kg; for half-life / AUC / clearance / Vd: male, Sprague-Dawley; for half-life: 5 mg/kg, read-out: t1/2, IV Plasma (converted); for clearance / Vd: intravenous; for Vd: read-out: Vss
Procedure: (§2) Animal Models. A total of 54 male Sprague-Dawley rats, weighing 200 grams in average, were evaluated for pharmacokinetic studies of representative pyridyl substituted ketolides. Rats were under overnight food restriction and received water ad libitum. Rats were acclimated for approximately 5 days before antibiotic administration.
(§3) Antibiotic Administration. Rats were given bolus administration through (IV) and oral (PO) routes. Representative pyridyl substituted ketolides and telithromycin, for comparison, were diluted in 0.85% saline to a concentration of 15.0 mg/ml, and the resulting pH was adjusted using 1N acetic acid until the compound was in solution. Approximately 200 microliters of the compound solution was administered to the rats. The target dose for IV and PO administration was 5 mg/kg and 15 mg/kg, respectively.
(§4) Sample Collection. Plasma and whole lung samples were collected from the rats. Plasma samples were obtained from blood samples by centrifugation at 3000 RPM for 10 min. Heparin was added in the plasma as an anticoagulant. Whole lung samples were homogenized in deionized water. Samples were stored at −80° C. A total of 9 time points were collected in triplicate at 0.083, 0.25, 0.5, 1, 2, 4, 6, 8, and 24 hrs. Ketolide concentrations in plasma and lung were determined by well-established non-GLP LC-MS-MS methods. PK parameters were estimated from the raw bioanalytical data using WinNolin software (Version 4.0, Pharsight Corporation, CA). […] All representative compounds were compared to telithromycin.

[3] = test system: Streptococcus pneumoniae Stpn_Mef S 3427; experiment: MIC, broth microdilution (NCCLS); format: cell-based; conditions: Table 10, Strain ID Q (Table 8): Streptococcus pneumoniae Stpn_Mef S 3427; in µg/mL (unit assumed)
In short: as §1

[4] = test system: Staphylococcus aureus Stau_29213; experiment: MIC, broth microdilution (NCCLS); format: cell-based; conditions: in µg/mL (unit assumed); for MIC: Table 10, Strain ID A (Table 8): Staphylococcus aureus Stau_29213
In short: as §1

[5] = test system: Enterococcus faecalis Enfa_29212; experiment: MIC, broth microdilution (NCCLS); format: cell-based; conditions: in µg/mL (unit assumed); for MIC: Table 10, Strain ID E (Table 8): Enterococcus faecalis Enfa_29212
In short: as §1

[6] = test system: Staphylococcus epidermidis Step_14990; experiment: MIC, broth microdilution (NCCLS); format: cell-based; conditions: in µg/mL (unit assumed); for MIC: Table 10, Strain ID C (Table 8): Staphylococcus epidermidis Step_14990
In short: as §1

[7] = test system: Haemophilus influenzae Hain_49247; experiment: MIC, broth microdilution (NCCLS); format: cell-based; conditions: unit assumed; for MIC: Table 10, Strain ID H (Table 8): Haemophilus influenzae Hain_49247
[8] = test system: Staphylococcus epidermidis Step_f50654; experiment: MIC, broth microdilution (NCCLS); format: cell-based; conditions: in µg/mL (unit assumed); for MIC: Table 10, Strain ID D (Table 8): Staphylococcus epidermidis Step_f50654
In short: as §1

[9] = test system: Streptococcus pneumoniae Stpn_Erm S 4297; experiment: MIC, broth microdilution (NCCLS); format: cell-based; conditions: for MIC: Table 10, Strain ID R (Table 8): Streptococcus pneumoniae Stpn_Erm S 4297
In short: as §1

[10] = In vivo pharmacokinetic study in rats, whole lung (IV and PO); conditions: male, Sprague-Dawley, 5 mg/kg, rat; for half-life: IV, whole lung, read-out: t1/2, IV Lung (converted); for Kp: lung/plasma, iv, read-out: L/P ratio, IV
Procedure: as §2, §3, §4

[11] = test system: Streptococcus pneumoniae Stpn_297-749; experiment: MIC, broth microdilution (NCCLS); format: cell-based; design: MIC, strain ID N: unit not given here; conditions: for MIC: Table 10, Strain ID N (Table 8): Streptococcus pneumoniae Stpn_297-749
In short: as §1

[12] = test system: Streptococcus pneumoniae Stpn_280-962; experiment: MIC, broth microdilution (NCCLS); format: cell-based; design: MIC, strain ID O: unit not given beside the values; conditions: for MIC: Table 10, Strain ID O (Table 8): Streptococcus pneumoniae Stpn_280-962
In short: as §1

[13] = test system: Streptococcus pyogenes Stpy_8668; experiment: MIC, broth microdilution (NCCLS); format: cell-based; design: MIC, strain ID G: unit not given beside the values; conditions: for MIC: Table 10, Strain ID G (Table 8): Streptococcus pyogenes Stpy_8668
In short: as §1

[14] = plasma, IV, dose IV = 5 mg/kg (Compound XIV: IV = 15)

| SMILES | MIC [1] | F, PO [2] | MIC [3] | MIC [4] | MIC [5] | MIC [6] | MIC [7] | MIC [8] | MIC [9] | half-life [10] | Kp [10] | MIC [11] | MIC [12] | MIC [13] | half-life ([2]; IV, plasma) | AUC [2, 14] | clearance ([2]; plasma) | Vd ([2]; plasma) | MIC ([9]; unit assumed) | also measured |
| --- | --- | --- | --- | --- | --- | --- | --- | --- | --- | --- | --- | --- | --- | --- | --- | --- | --- | --- | --- | --- |
| CC[C@H]1OC(=O)[C@H](C)C(=O)[C@H](C)[C@@H](O[C@@H]2O[C@H](C)C[C@H](N(C)C)[C@H]2O)[C@](C)(OC)C[C@@H](C)C(=O)[C@H](C)[C@H]2N(CCCCn3cnc(-c4cccnc4)c3)C(=O)O[C@]12C [Telithromycin, telithromycin, reference compound] | 0.2-0.78 | 11% | 0.1-0.2 | 0.1-0.2 | 0.1-0.2 | 0.1-0.2 | 3.13 mg/L (≈ 3.85 µM) | 0.1-0.2 | =0.1 | 1.3 h | 16 | =0.05 | =0.05 | =0.05 | – | – | – | – | – | MIC, strain ID R ([1]; strain ID R, broth microdilution): =0.1; AUC, IV ([2]; IV, dose IV = 5 mg/kg (Compound XIV: IV = 15)): 2.5 µg·h/mL; t1/2, IV Plasma ([2]; IV, plasma): 1.0 h; MIC, strain ID A ([4]; strain ID A, broth microdilution): 0.1-0.2; MIC, strain ID E ([5]; strain ID E, broth microdilution): 0.1-0.2; MIC, strain ID C ([6]; strain ID C, broth microdilution): 0.1-0.2; MIC, strain ID H ([7]; strain ID H, broth microdilution): 3.13 mg/L (≈ 3.85 µM); MIC, strain ID D ([8]; strain ID D, broth microdilution): 0.1-0.2; MIC, strain ID Q ([9]; strain ID Q, broth microdilution, in µg/mL (unit assumed)): 0.1-0.2; MIC, strain ID N ([11]; strain ID N, broth microdilution): =0.05; MIC, strain ID O ([12]; strain ID O, broth microdilution): =0.05; MIC, strain ID G ([13]; strain ID G, broth microdilution): =0.05 |
| CC[C@H]1OC(=O)[C@@](C)(F)C(=O)[C@H](C)[C@@H](OC2O[C@H](C)C[C@H](N(C)C)[C@H]2O)[C@@](C)(OC)C[C@@H](C)C(=O)[C@H](C)[C@H]2N(CCCCn3cnc(-c4ccc(C)nc4)c3)C(=O)O[C@]12CC (some centres unmarked) [XIV] | 0.78 | 43% | 0.1 | 0.2 | 0.2 | 0.2 | 6.25 mg/L (≈ 7.28 µM) | 0.4 | – | 3.6 h | 83 | =0.05 | =0.05 | =0.05 | 2.3 h | 3.3 µg·h/mL | 4.2 L/h/kg | 13 L/kg | 0.1 mg/L (≈ 0.117 µM) | – |
| C=C[C@]12OC(=O)N(CCCCn3cnc(-c4ccc(OC)nc4)c3)[C@@H]1[C@@H](C)C(=O)[C@H](C)C[C@](C)(OC)[C@H](OC1O[C@H](C)C[C@H](N(C)C)[C@H]1O)[C@@H](C)C(=O)[C@@H](C)C(=O)O[C@@H]2CC (some centres unmarked) [XVIII] | 0.78 | 51% | 0.2 | 0.2 | 0.1 | 0.2 | 6.25 mg/L (≈ 7.32 µM) | 0.2 | – | 3.1 h | 110 | =0.05 | =0.05 | =0.05 | 1.7 h | 2.6 µg·h/mL | 5.46 L/h/kg | 11 L/kg | 0.1 mg/L (≈ 0.117 µM) | – |
| C=C[C@]12OC(=O)N(CCCCn3cnc(-c4ccc(C)nc4)c3)[C@@H]1[C@@H](C)C(=O)[C@H](C)C[C@](C)(OC)[C@H](OC1O[C@H](C)C[C@H](N(C)C)[C@H]1O)[C@@H](C)C(=O)[C@@H](C)C(=O)O[C@@H]2CC (some centres unmarked) [XVI] | 0.78 | 35% | 0.1 | 0.2 | 0.1 | 0.2 | 6.25 mg/L (≈ 7.46 µM) | 0.2 | =0.05 | 3.4 h | 80 | =0.05 | =0.05 | =0.05 | 1.6 h | 2.1 µg·h/mL | 6.9 L/h/kg | 14 L/kg | – | – |
